The text below walks through data of patent publication US8546452B2, “S1P3 receptor antagonist” (TOA Eiyo Ltd., priority 2005, dated 2013).

The structures appear in SMILES notation. Read-outs that look alike come from different tables or passages of the source.

Holding throughout (type): cell-based
One experiment has as its target hS1P3 (Homo sapiens, UniProt Q99500). In words: Suppressive effect on S1P-induced increase in [Ca2+]i, CHO-K1 cells expressing S1P3 (Fura 2-AM), IC50. To be noted: S1P solution 50 nmol/L, read-out: hS1P3 suppression IC50.
For a further experiment, the target named is T1, hS1P1 (Homo sapiens, UniProt P21453).
T1 construct: expressed in transfected cells
T1 sequence (P21453 whole entry): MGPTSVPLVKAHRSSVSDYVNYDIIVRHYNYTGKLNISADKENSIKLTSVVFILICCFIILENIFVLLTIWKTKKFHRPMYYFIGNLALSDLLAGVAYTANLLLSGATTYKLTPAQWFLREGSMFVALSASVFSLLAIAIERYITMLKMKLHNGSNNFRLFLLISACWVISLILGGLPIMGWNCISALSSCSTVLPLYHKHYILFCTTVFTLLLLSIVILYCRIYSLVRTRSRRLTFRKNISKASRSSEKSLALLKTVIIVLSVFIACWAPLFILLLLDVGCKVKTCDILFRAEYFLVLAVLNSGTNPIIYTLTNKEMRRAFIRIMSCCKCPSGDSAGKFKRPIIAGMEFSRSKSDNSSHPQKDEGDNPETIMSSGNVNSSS
Nature of the experiment: S1P receptor subtype selectivity, S1P-induced [Ca2+]i increase in CHO-K1 cells stably expressing S1P1 (Calcium3). The protocol: (§1) The selectivity to the S1P receptor subtype was examined in the following manner. […] Furthermore, a Calcium3 (Molecular Devices, Inc.) solution prepared in HBSS (+) buffer, which is a fluorescent Ca^2+ indicator, was added, and the cells were incubated for 60 minutes at 37° C. Then, 100 μL of a test compound solution prepared to a concentration of 2×10 μmol/L was added, and the cells were incubated for 20 minutes at 37° C. […] The indicator was prepared and used according to the instruction manual.
(§2) A solution of the test compound was prepared by dissolving each of the test compounds in DMSO to a concentration of 10 mmol/L, and then diluting the solution with an HBSS (+) buffer solution to the predetermined concentration. […] The measurement values were obtained by subtracting the maximum RFU value for the blind test from the maximum RFU values for control or each test compounds. A decrease in the measurement value for the test compound relative to the control was indicated as the suppression rate (%), from which the IC50 value was calculated.

Another experiment has as its target T2, hS1P2 (Homo sapiens, UniProt O95136).
T2 construct: expressed in transfected cells
Nature of the experiment: S1P receptor subtype selectivity, S1P-induced [Ca2+]i increase in CHO-K1 cells stably expressing S1P2 (Calcium3). The protocol: as §1, §2

[1] abbreviates: 10 μM, CHO-K1 stably expressing S1P1, S1P solution 100 nmol/L, Calcium3, read-out: Suppression rate at 10 μM (%) hS1P1.
The mark [2] stands for this setting: 10 μM, CHO-K1 stably expressing S1P2, S1P solution 100 nmol/L, Calcium3, read-out: Suppression rate at 10 μM (%) hS1P2.
The mark [3] stands for this setting: CHO-K1, read-out: Suppression rate at 10 μM (%) hS1P1.
The mark [4] stands for this setting: CHO-K1, read-out: Suppression rate at 10 μM (%) hS1P2.

T2 sequence (O95136 whole entry): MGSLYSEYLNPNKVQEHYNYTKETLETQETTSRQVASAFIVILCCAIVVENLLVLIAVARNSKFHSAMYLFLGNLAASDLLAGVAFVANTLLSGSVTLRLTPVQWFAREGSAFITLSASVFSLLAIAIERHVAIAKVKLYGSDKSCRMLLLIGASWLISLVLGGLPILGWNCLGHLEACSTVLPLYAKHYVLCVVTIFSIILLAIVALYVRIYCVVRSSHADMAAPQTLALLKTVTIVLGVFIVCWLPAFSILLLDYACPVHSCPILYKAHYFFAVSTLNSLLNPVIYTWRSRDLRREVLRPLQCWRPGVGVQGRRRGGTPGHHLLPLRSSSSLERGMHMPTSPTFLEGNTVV
Sequence of hS1P3 (Q99500 whole entry): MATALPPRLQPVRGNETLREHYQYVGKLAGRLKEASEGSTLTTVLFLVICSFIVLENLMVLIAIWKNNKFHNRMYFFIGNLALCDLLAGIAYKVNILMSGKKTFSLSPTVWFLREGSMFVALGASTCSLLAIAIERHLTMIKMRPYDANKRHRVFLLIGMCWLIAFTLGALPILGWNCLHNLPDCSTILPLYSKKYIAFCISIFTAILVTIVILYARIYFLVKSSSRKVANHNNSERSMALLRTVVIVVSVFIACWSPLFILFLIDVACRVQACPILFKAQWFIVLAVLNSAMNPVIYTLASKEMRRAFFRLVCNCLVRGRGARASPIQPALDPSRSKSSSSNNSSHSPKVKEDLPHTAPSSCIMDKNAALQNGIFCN

As usually defined, the IC50 is the concentration at which inhibition is half-maximal. As to `CC(C)(C)C(=O)C(=NNc1ccc(Br)cc1)Nc1ccc(Cl)c(Cl)c1` [Compound 80, 1-(4-bromophenylhydrazono)-1-(3,4-dichlorophenylamino)-3,3-dimethyl-2-butanone], on hS1P3, the IC50 is 0.38 µM. The inhibition at 10 µM is 20.6% on hS1P1 (setting [1]) and 26.3% at hS1P2 (setting [2]).

On to `CCOC(=O)C(=NNc1ccc(Cl)cc1)Nc1cccc(F)c1` [Compound 13, ethyl 1-(4-chlorophenylhydrazono)-1-(3-fluorophenylamino)acetate], for which the half-maximal inhibitory concentration (IC50) at hS1P3 was 3.12 µM. Moreover, the inhibition at 10 µM at hS1P1 (setting [1]) was 26.1%; on hS1P2 (setting [2]), -16.7%.

`CC(C)(C)CC(=O)C(=NNc1ccc(Cl)cc1)Nc1cccc(F)c1` [Compound 113, 1-(4-chlorophenylhydrazono)-1-(3-fluorophenylamino)-4,4-dimethyl-2-pentanone]: the IC50 at hS1P3 was determined as 1.78 µM. In addition, the values for the inhibition at 10 µM at hS1P1 (setting [1]) and at hS1P2 (setting [2]) were 5.9% and 20.7%, respectively.

With `CC(C)(C)C(=O)C(=NNc1ccc(Br)cc1)Nc1ccc(Cl)cc1` [Compound 75, 1-(4-bromophenylhydrazono)-1-(4-chlorophenylamino)-3,3-dimethyl-2-butanone], the IC50 at hS1P3 amounted to 1.17 µM. Moreover, the values for the inhibition at 10 µM on hS1P1 (setting [3]) and at hS1P2 (setting [4]) were 17% and 17.9%, respectively.

Take `CC(C)(C)C(=O)C(=NNc1ccc(F)cc1)Nc1cccc(F)c1` [Compound 53, 1-(3-fluorophenylamino)-1-(4-fluorophenylhydrazono)-3,3-dimethyl-2-butanone]: the IC50 on hS1P3 worked out at 4.47 µM. The results for the inhibition at 10 µM on hS1P1 (setting [1]) and on hS1P2 (setting [2]) were 27.1% and 18.5%, respectively.

For the compound `CC(C)(C)C(=O)C(=NNc1ccccc1)Nc1ccc(Cl)cc1` [Compound 50, 1-(4-chlorophenylamino)-1-(phenylhydrazono)-3,3-dimethyl-2-butanone], the IC50 at hS1P3 is 3.74 µM. In addition, the inhibition at 10 µM on hS1P1 (setting [3]) was determined as 25.1%; on hS1P2 (setting [4]), 13.6%.

Regarding `Cc1ccc(NN=C(Nc2ccc(C)cc2)C(=O)C(C)(C)C)cc1` [Compound 63, 1-(4-methylphenylamino)-1-(4-methylphenylhydrazono)-3,3-dimethyl-2-butanone], the IC50 on hS1P3 was determined as 5.71 µM. For the same compound, the values for the inhibition at 10 µM on hS1P1 (setting [3]) and at hS1P2 (setting [4]) were -9.1% and -1.4%, respectively.

Regarding `CCOC(=O)C(=NNc1ccc(Cl)cc1)Nc1cccc(C#N)c1` [Compound 20, ethyl 1-(4-chlorophenylhydrazono)-1-(3-cyanophenylamino)acetate], the IC50 at hS1P3 came to 2.18 µM. In addition, the values for the inhibition at 10 µM at hS1P1 (setting [3]) and on hS1P2 (setting [4]) were -3.5% and -4.6%, respectively.

For `CC(C)(C)C(=O)C(=NNc1ccc(Cl)c(Cl)c1)Nc1cccc(F)c1` [Compound 104, 1-(3,4-dichlorophenylhydrazono)-1-(3-fluorophenylamino)-3,3-dimethyl-2-butanone], the IC50 at hS1P3 is 0.43 µM. Further, the results for the inhibition at 10 µM on hS1P1 (setting [1]) and at hS1P2 (setting [2]) were 28.3% and 18.9%, respectively.

As to `CC(C)(C)C(=O)C(=NNc1ccc(Cl)cc1)Nc1cccc(Cl)c1` [Compound 133, 1-(3-chlorophenylamino)-1-(4-chlorophenylhydrazono)-3,3-dimethyl-2-butanone], on hS1P3, the IC50 turned out to be 0.84 µM. Further, the inhibition at 10 µM at hS1P1 (setting [3]) amounted to 16.7%; on hS1P2 (setting [4]) it was 37.7%.

Turning to `C#Cc1ccc(NC(=NNc2ccc(Cl)cc2)C(=O)c2ccco2)cc1` [Compound 117, 1-(4-chlorophenylhydrazono)-1-(4-ethynylphenylamino)-2-(2-furyl)-2-ethanone], the IC50 at hS1P3 stood at 2.34 µM. Also, the inhibition at 10 µM came to 20.4% at hS1P1 (setting [3]) and 31.6% at hS1P2 (setting [4]).

For the compound `COc1ccc(NC(=NNc2ccc(F)cc2)C(=O)C(C)(C)C)cc1` [Compound 57, 1-(4-fluorophenylhydrazono)-1-(4-methoxyphenylamino)-3,3-dimethyl-2-butanone], at hS1P3, the IC50 amounted to 4.95 µM. The inhibition at 10 µM was determined as 11.5% on hS1P1 (setting [1]) and 15% at hS1P2 (setting [2]).

As for `CC(C)(C)C(=O)C(=NNc1ccccc1)Nc1cccc(F)c1` [Compound 49, 1-(3-fluorophenylamino)-1-(phenylhydrazono)-3,3-dimethyl-2-butanone], the IC50 at hS1P3 came out at 5.32 µM. In addition, the inhibition at 10 µM at hS1P1 (setting [1]) is 6.6%; on hS1P2 (setting [2]), 3.6%.

Take `Cc1ccc(NN=C(Nc2cc(Cl)cc(Cl)c2)C(=O)C(C)(C)C)cc1` [Compound 64, 1-(3,5-dichlorophenylamino)-1-(4-methylphenylhydrazono)-3,3-dimethyl-2-butanone]: the inhibition at 10 µM was -1% at hS1P1 (setting [3]) and 9.1% on hS1P2 (setting [4]).

Regarding `CCCCC(=O)C(=NNc1ccc(Cl)cc1)Nc1cccc(Cl)c1` [Compound 141, 1-(3-chlorophenylamino)-1-(4-chlorophenylhydrazono)-2-hexanone], at hS1P3, the IC50 came to 1.99 µM.

Consider `CC(C)(C)C(=O)C(=NNc1ccc(C(F)(F)F)cc1)Nc1cccc(F)c1` [Compound 66, 1-(3-fluorophenylamino)-1-(4-trifluoromethylphenylhydrazono)-3,3-dimethyl-2-butanone], for which the IC50 on hS1P3 was 7.05 µM.

Regarding `O=C(C(=NNc1ccc(Cl)cc1)Nc1cc(F)cc(F)c1)N1CCCCC1` [Compound 25, [1-(4-chlorophenylhydrazono)-1-(3,5-difluorophenylamino)acetyl]piperidine], at hS1P3, the IC50 amounted to 11.7 µM.

Regarding `CC(C)(C)C(=O)C(=NNc1ccc(C(F)(F)F)cc1)Nc1ccc(Cl)cc1` [Compound 68, 1-(4-chlorophenylamino)-1-(4-trifluoromethylphenylhydrazono)-3,3-dimethyl-2-butanone], the IC50 on hS1P3 worked out at 9.09 µM.

Regarding `O=C(C(=NNc1ccc(Cl)cc1)Nc1cc(Cl)nc(Cl)c1)c1ccccc1` [Compound 4, 2-(4-chlorophenylhydrazono)-2-(2,6-dichloropyridin-4-ylamino)acetophenone], at hS1P3, the IC50 worked out at 2.81 µM.

In the case of `CC(C)(C)C(=O)C(=NNc1ccc(Cl)cc1)Nc1ccc(Cl)c(Cl)c1` [Compound 38, 1-(4-chlorophenylhydrazono)-1-(3,4-dichlorophenylamino)-3,3-dimethyl-2-butanone], the IC50 on hS1P3 was determined as 0.31 µM.

On to `O=C(C(=NNc1ccc(Cl)cc1)Nc1cccc(C(F)(F)F)c1)c1ccco1` [Compound 120, 1-(4-chlorophenylhydrazono)-1-(3-trifluoromethylphenylamino)-2-(2-furyl)-2-ethanone], for which, on hS1P3, the IC50 was 5.45 µM.

With `CC(C)(C)C(=O)C(=NNc1ccc(Cl)c(Cl)c1)Nc1cccc(Cl)c1` [Compound 123, 1-(3-chlorophenylamino)-1-(3,4-dichlorophenylhydrazono)-3,3-dimethyl-2-butanone], the IC50 on hS1P3 is 0.34 µM.

Turning to `CC(C)(C)C(=O)C(=NNc1ccc(Br)cc1)Nc1ccc(C#N)cc1` [Compound 77, 1-(4-bromophenylhydrazono)-1-(4-cyanophenylamino)-3,3-dimethyl-2-butanone], the IC50 on hS1P3 stood at 1.51 µM.

For the compound `CC(C)(C)C(=O)C(=NNc1ccc(F)cc1)Nc1ccc(Br)cc1` [Compound 56, 1-(4-bromophenylamino)-1-(4-fluorophenylhydrazono)-3,3-dimethyl-2-butanone], the IC50 on hS1P3 worked out at 2.16 µM.

Consider `O=C(C(=NNc1ccc(Cl)cc1)Nc1cccc(F)c1)c1ccccc1` [Compound 1, 2-(4-Chlorophenylhydrazono)-2-(3-fluorophenylamino)acetophenone], for which the IC50 at hS1P3 amounted to 6.72 µM.
